Data on one compound can be found in US20120082677A1, “COMPOSITIONS FOR THE TREATMENT OF HCV AND HBV” (priority 2010, published 2012).

Data set [1] is described as follows: Experiment 7 (second): injection in white mice for about 15 days. Type of data set: in vivo. Particulars: 5 per group, injected for about 15 days. The source says:
Experimental animals: We classified 20 white mice in 4 groups every group has 5 mice.

For data set [2] the following is noted: cited from earlier work.

In the case of `NC[C@H]1CC[C@H](C(=O)O)CC1` [tranexamic acid], in data set [1], the “survival of the mice” value is reported as “still alive”. For the same compound, in data set [2] (absorption via the GIT), the “time of peak plasma concentration” value is 2 h. The excretion entry in data set [2] (chemical part) is on record as “excreted in the urine mainly as unchanged drug”. Also, the protein binding entry in data set [2] (in vivo) was “very low”. The absorption result in data set [2] (via the GIT) is on record as “easily absorbed via the GIT”.
